# Laboratory results as given in US20260248879A1, “METHODS OF USING A GCG/GLP1 CO-AGONIST FOR THERAPY” (ELI LILLY AND COMPANY, priority 2022, published 2026).
# Legend:
# [1] = test system: patients with T2DM; assay: Example 1 study: adverse events; assay type: in vivo
# From the text: Investigators are responsible for monitoring the safety of patients who have entered this study. The investigator is responsible for the appropriate medical care of patients during the study. Investigators document their review of each laboratory safety report. The investigator remains responsible for following, through an appropriate health care option,
# AEs that are serious or otherwise medically important, considered related to Compound 1 or the study, or that caused the patient to discontinue Compound 1 before completing the study. The patient is followed until the event resolves, stabilizes with appropriate diagnostic evaluation, or is reasonably explained. The frequency of follow-up evaluations of the AE is left to the discretion of the investigator.
# The investigator records all relevant AE and SAE information. After receiving consent from the patient, study site personnel record the occurrence and nature of each patient's preexisting conditions, including clinically significant signs and symptoms of the disease under treatment in the study. Additionally, site personnel record any change in the condition(s) and the occurrence and nature of any AEs.
# The investigator interprets and document whether or not an AE has a reasonable possibility of being related to study treatment, or a study procedure, taking into account the disease, concomitant treatment, or pathologies.
# A “reasonable possibility” means that there is a potential cause and effect relationship between Compound 1, study device, and/or study procedure and the AE. Planned surgeries should not be reported as AEs unless the underlying medical condition has worsened during the course of the study.
# A Serious Adverse Event (SAE) is any AE from this study that results in one of the following: • death • initial or prolonged inpatient hospitalization • a life-threatening experience (i.e., immediate risk of dying) • persistent or significant disability/incapacity • congenital anomaly/birth defect • important medical events that may not be immediately life-threatening or result in death or hospitalization but may jeopardize the patient or may require intervention to prevent one of the other outcomes listed in the definition above.
# All AEs occurring after signing the ICF are recorded and assessed for serious criteria.
# [2] = test system: patients with T2DM; assay: Example 1 study: gastric emptying (acetaminophen PK); assay type: in vivo, human
# [3] = test system: patients with T2DM; assay: Example 1 study: fasting pharmacodynamic markers (glucose, insulin, C-peptide, glucagon, lipids, HOMA indices); assay type: in vivo, human; conditions: for mean HOMA-B index: baseline 9.108
# Description: Fasting plasma samples for glucose and insulin are explored as secondary PD markers. Exploratory PD may include, but are not limited to plasma glucagon, C-peptide, native OXM, lipid panel (triglycerides, total cholesterol, low-density lipoprotein cholesterol, and high-density lipoprotein cholesterol), beta cell function, and homeostatic model assessment (HOMA) indices.
# Plasma concentrations of at least glucose, glucagon, insulin, C-peptide and native OXM, are assayed using validated analytical methods.
# In respect of Cohort 1, PD sampling occurs at baseline and Days 1, 3 (48 hours post administration of Compound 1), 8, 22, 29, 50, 57, 78 and 80. […]
# [4] = Cohort 1, escalated to 4.5 mg, Day 78 and Day 80
# [5] = Cohort 1, escalated to 4.5 mg, Day 80
# [6] = Cohort 2, escalated to 6.0 mg, Day 64
# [7] = Cohort 2, escalated to 8.0 mg, Day 85
# [8] = Cohort 2, escalated to 10.0 mg, Day 106 and Day 108
# [9] = Cohort 2, escalated to 10.0 mg, Day 108
structure (smiles),measurement,setting,value
CC(C)C[C@H](NC(=O)[C@H](CC(C)C)NC(=O)[C@H](Cc1c[nH]c2ccccc12)NC(=O)[C@H](CCC(=O)O)NC(=O)[C@@H](NC(=O)[C@H](Cc1ccccc1)NC(=O)[C@H](CCC(=O)O)NC(=O)[C@H](CCCCNC(=O)COCCOCCNC(=O)COCCOCCNC(=O)CC[C@H](NC(=O)CCCCCCCCCCCCCCCCCCC(=O)O)C(=O)O)NC(=O)[C@H](C)NC(=O)[C@H](CCCCN)NC(=O)[C@H](CCCCN)NC(=O)[C@H](CCC(=O)O)NC(=O)[C@H](CC(=O)O)NC(=O)[C@H](CC(C)C)NC(=O)[C@H](Cc1ccc(O)cc1)NC(=O)[C@H](CCCCN)NC(=O)[C@H](CO)NC(=O)[C@H](Cc1ccc(O)cc1)NC(=O)[C@H](CC(=O)O)NC(=O)[C@H](CO)NC(=O)[C@@H](NC(=O)[C@H](Cc1ccccc1)NC(=O)[C@@H](NC(=O)CNC(=O)[C@H](CCC(N)=O)NC(=O)C(C)(C)NC(=O)[C@@H](N)Cc1c[nH]cn1)[C@@H](C)O)[C@@H](C)O)C(C)C)C(=O)N[C@@H](CCC(=O)O)C(=O)NCC(=O)NCC(=O)N1CCC[C@H]1C(=O)N[C@@H](CO)C(=O)N[C@@H](CO)C(=O)NCC(N)=O [Compound 1],"SAE reported, MedDRA preferred term",[1]; in vivo,Sarcoidosis
same,"abdominal pain, number of participants",[1]; in vivo,1
same,"abdominal pain, percentage of participants",[1]; in vivo,5.6%
same,"constipation, number of participants",[1]; in vivo,2
same,"constipation, percentage of participants",[1]; in vivo,11.1%
same,"diarrhea, number of participants",[1]; in vivo,4
same,"diarrhea, percentage of participants",[1]; in vivo,22.2%
same,"eructation, number of participants",[1]; in vivo,4
same,"eructation, percentage of participants",[1]; in vivo,22.2%
same,"nausea, number of participants",[1]; in vivo,7
same,"nausea, percentage of participants",[1]; in vivo,38.9%
same,number of patients treated with study intervention reporting an SAE,[1]; in vivo,1
same,number of patients with TEAEs,[1]; in vivo,17
same,"vomiting, number of participants",[1]; in vivo,5
same,"vomiting, percentage of participants",[1]; in vivo,27.8%
same,deaths,[1]; whole study,No deaths occurred
same,"acetaminophen Cmax, Change From Baseline, Mean","[2]; Cohort 1, Day 107",1487.25
same,acetaminophen tmax,"[2]; Cohort 1, Day 107",1.456 h
same,acetaminophen tmax,"[2]; Cohort 2, Day 79",3.302 h
same,"acetaminophen tmax, Change From Baseline, Mean","[2]; Cohort 2, Day 79",0.333 h
same,mean fasting glucagon,"[3]; Cohort 1, escalated to 4.5 mg, Day 78, baseline 14.79 pmol/L",6.65 pmol/L
same,mean fasting C-peptide,"[3]; Cohort 1, escalated to 4.5 mg, Day 78, baseline 667 pmol/L",820 pmol/L
same,mean fasting triglyceride,"[3]; Cohort 1, escalated to 4.5 mg, Day 78, baseline 2.938",1.456 mmol/L
same,mean HOMA-IR index,"[3]; Cohort 1, escalated to 4.5 mg, Day 78, baseline 4.704",4.289
same,mean fasting total cholesterol,"[3]; Cohort 1, escalated to 4.5 mg, Day 78, baseline 5.065",4.275 mmol/L
same,mean fasting insulin,"[3]; Cohort 1, escalated to 4.5 mg, Day 78, baseline 9.648",13.362 mIU/L
same,approximate decrease of HOMA-IR from baseline,[3]; [4],~9%
same,approximate decrease of fasting LDL cholesterol from baseline,[3]; [4],~10%
same,approximate decrease of fasting glucagon from baseline,[3]; [4],45-55%
same,approximate decrease of fasting total cholesterol from baseline,[3]; [4],12-16%
same,approximate decrease of fasting triglyceride from baseline,[3]; [4],29-50%
same,approximate increase of fasting C-peptide from baseline,[3]; [4],22-31%
same,approximate increase of fasting insulin from baseline,[3]; [4],38-46%
same,mean fasting LDL cholesterol,"[3]; Cohort 1, escalated to 4.5 mg, Day 78 and Day 80, baseline 2.852",2.56 mmol/L
same,approximate increase of HOMA-B from baseline,[3]; [5],~145%
same,approximate reduction of mean fasting glucose from baseline,[3]; [5],~40%
same,mean fasting glucagon,"[3]; Cohort 1, escalated to 4.5 mg, Day 80, baseline 14.79 pmol/L",8.19 pmol/L
same,mean fasting C-peptide,"[3]; Cohort 1, escalated to 4.5 mg, Day 80, baseline 667 pmol/L",875 pmol/L
same,mean fasting triglyceride,"[3]; Cohort 1, escalated to 4.5 mg, Day 80, baseline 2.938",2.084 mmol/L
same,mean fasting total cholesterol,"[3]; Cohort 1, escalated to 4.5 mg, Day 80, baseline 5.065",4.461 mmol/L
same,mean fasting insulin,"[3]; Cohort 1, escalated to 4.5 mg, Day 80, baseline 9.648",14.046 mIU/L
same,mean fasting glucose,"[3]; Cohort 1, escalated to 4.5 mg, Day 80, baseline 10.78",6.52 mmol/L
same,approximate decrease of fasting glucagon from baseline,"[3]; Cohort 2, escalated to 6.0 mg",~63%
same,approximate increase of fasting C-peptide from baseline,"[3]; Cohort 2, escalated to 6.0 mg",~12%
same,approximate increase of fasting insulin from baseline,"[3]; Cohort 2, escalated to 6.0 mg",~14%
same,approximate decrease of HOMA-IR from baseline,[3]; [6],~20%
same,approximate decrease of fasting LDL cholesterol from baseline,[3]; [6],~29%
same,approximate decrease of fasting total cholesterol from baseline,[3]; [6],~26%
same,approximate decrease of fasting triglyceride from baseline,[3]; [6],~43%
same,approximate increase of HOMA-B from baseline,[3]; [6],~76%
same,mean fasting triglyceride,"[3]; Cohort 2, escalated to 6.0 mg, Day 64, baseline 1.867",1.055 mmol/L
same,mean HOMA-IR index,"[3]; Cohort 2, escalated to 6.0 mg, Day 64, baseline 2.7",2.158
same,mean fasting LDL cholesterol,"[3]; Cohort 2, escalated to 6.0 mg, Day 64, baseline 2.796",1.997 mmol/L
same,mean fasting total cholesterol,"[3]; Cohort 2, escalated to 6.0 mg, Day 64, baseline 4.971",3.673 mmol/L
same,mean HOMA-B index,[3]; [6],16.072
same,mean fasting insulin,"[3]; Cohort 2, escalated to 6.0 mg, baseline 5.892",6.73 mIU/L
same,mean fasting glucagon,"[3]; Cohort 2, escalated to 6.0 mg, baseline 9.83",3.65 pmol/L
same,mean fasting C-peptide,"[3]; Cohort 2, escalated to 6.0 mg, baseline 532.8",597 pmol/L
same,approximate increase of fasting C-peptide from baseline,"[3]; Cohort 2, escalated to 8.0 mg",approximately 2%
same,approximate increase of fasting insulin from baseline,"[3]; Cohort 2, escalated to 8.0 mg",~12%
same,mean fasting glucagon,"[3]; Cohort 2, escalated to 8.0 mg, Day 80 (so in the source), baseline 9.83",2 pmol/L
same,approximate decrease of HOMA-IR from baseline,[3]; [7],approximately 27%
same,approximate decrease of fasting LDL cholesterol from baseline,[3]; [7],approximately 30%
same,approximate decrease of fasting total cholesterol from baseline,[3]; [7],approximately 27%
same,approximate decrease of fasting triglyceride from baseline,[3]; [7],approximately 54%
same,approximate increase of HOMA-B from baseline,[3]; [7],approximately 83%
same,mean fasting triglyceride,"[3]; Cohort 2, escalated to 8.0 mg, Day 85, baseline 1.867",0.855 mmol/L
same,mean HOMA-IR index,"[3]; Cohort 2, escalated to 8.0 mg, Day 85, baseline 2.7",1.976
same,mean fasting LDL cholesterol,"[3]; Cohort 2, escalated to 8.0 mg, Day 85, baseline 2.796",1.954 mmol/L
same,mean fasting total cholesterol,"[3]; Cohort 2, escalated to 8.0 mg, Day 85, baseline 4.971",3.614 mmol/L
same,mean HOMA-B index,[3]; [7],16.689
same,mean fasting insulin,"[3]; Cohort 2, escalated to 8.0 mg, baseline 5.892",6.589 mIU/L
same,mean fasting C-peptide,"[3]; Cohort 2, escalated to 8.0 mg, baseline 532.8",542 pmol/L
same,approximate decrease of fasting C-peptide from baseline,"[3]; Cohort 2, escalated to 10.0 mg",~18%
same,approximate decrease of fasting insulin from baseline,"[3]; Cohort 2, escalated to 10.0 mg",~20%
same,approximate decrease of fasting total cholesterol from baseline,"[3]; Cohort 2, escalated to 10.0 mg",~31%
same,mean fasting triglyceride,"[3]; Cohort 2, escalated to 10.0 mg, Day 106, baseline 1.867",0.86 mmol/L
same,mean fasting LDL cholesterol,"[3]; Cohort 2, escalated to 10.0 mg, Day 106, baseline 2.796",1.859 mmol/L
same,mean fasting total cholesterol,"[3]; Cohort 2, escalated to 10.0 mg, Day 106, baseline 4.971",3.454 mmol/L
same,mean fasting insulin,"[3]; Cohort 2, escalated to 10.0 mg, Day 106, baseline 5.892",5.355 mIU/L
same,mean fasting glucagon,"[3]; Cohort 2, escalated to 10.0 mg, Day 106, baseline 9.83",1.98 pmol/L
same,mean fasting C-peptide,"[3]; Cohort 2, escalated to 10.0 mg, Day 106, baseline 532.8",511 pmol/L
same,approximate decrease of fasting LDL cholesterol from baseline,[3]; [8],33-34%
same,approximate decrease of fasting triglyceride from baseline,[3]; [8],47-54%
same,approximate decrease of HOMA-IR from baseline,[3]; [9],~51%
same,approximate increase of HOMA-B from baseline,[3]; [9],~33%
same,approximate reduction of mean fasting glucose from baseline,[3]; [9],~43%
same,mean fasting triglyceride,"[3]; Cohort 2, escalated to 10.0 mg, Day 108, baseline 1.867",0.985 mmol/L
same,mean fasting LDL cholesterol,"[3]; Cohort 2, escalated to 10.0 mg, Day 108, baseline 2.796",1.849 mmol/L
same,mean fasting total cholesterol,"[3]; Cohort 2, escalated to 10.0 mg, Day 108, baseline 4.971",3.441 mmol/L
same,mean fasting insulin,"[3]; Cohort 2, escalated to 10.0 mg, Day 108, baseline 5.892",4.74 mIU/L
same,mean fasting glucagon,"[3]; Cohort 2, escalated to 10.0 mg, Day 108, baseline 9.83",1.93 pmol/L
same,mean fasting glucose,"[3]; Cohort 2, escalated to 10.0 mg, Day 108, baseline 10.46",5.91 mmol/L
same,mean fasting C-peptide,"[3]; Cohort 2, escalated to 10.0 mg, Day 108, baseline 532.8",435 pmol/L
same,mean fasting HDL levels,"[3]; Cohort 2, over the dosing period (FIG. 7c)",decreased from baseline
same,reduction of fasting LDL cholesterol,[3]; dose 8.0 mg or higher,≥ 30%
same,reduction of fasting insulin resistance indices,[3]; dose 10 mg or greater,50%
same,reduction of fasting insulin resistance indices,[3]; dose greater than 6.0 mg,greater than 25%
same,reduction of fasting plasma glucagon,[3]; dose greater than 6.0 mg,approximately 80%
same,reduction of fasting triglyceride,[3]; dose greater than 6.0 mg,≥ 50%
same,reduction of fasting total cholesterol,[3]; dose greater than 8.0 mg,more than 30%
